From patent US20240116985A1, “STAPLED PEPTIDES AND METHODS THEREOF” (priority 2020, published 2024) come the findings set out here.

In brackets after ≈: the same amount, converted by molar mass. Several values for one entry are separate records, joined by “and”; a condition that tells them apart may be missing. Identical values can stand only once. Like-named read-outs stand apart in the source and are kept apart here.

One series in a line: CHI Log D procedure. It counts as physicochemical. To be noted: pH 7.4, CHI Log D.
For series [1], the target named is T1, beta-catenin/TCF4 engagement (Homo sapiens, UniProt P35222).
T1 construct: expressed in transfected cells; host or cells: HEK293
T1 sequence (P35222 1-781): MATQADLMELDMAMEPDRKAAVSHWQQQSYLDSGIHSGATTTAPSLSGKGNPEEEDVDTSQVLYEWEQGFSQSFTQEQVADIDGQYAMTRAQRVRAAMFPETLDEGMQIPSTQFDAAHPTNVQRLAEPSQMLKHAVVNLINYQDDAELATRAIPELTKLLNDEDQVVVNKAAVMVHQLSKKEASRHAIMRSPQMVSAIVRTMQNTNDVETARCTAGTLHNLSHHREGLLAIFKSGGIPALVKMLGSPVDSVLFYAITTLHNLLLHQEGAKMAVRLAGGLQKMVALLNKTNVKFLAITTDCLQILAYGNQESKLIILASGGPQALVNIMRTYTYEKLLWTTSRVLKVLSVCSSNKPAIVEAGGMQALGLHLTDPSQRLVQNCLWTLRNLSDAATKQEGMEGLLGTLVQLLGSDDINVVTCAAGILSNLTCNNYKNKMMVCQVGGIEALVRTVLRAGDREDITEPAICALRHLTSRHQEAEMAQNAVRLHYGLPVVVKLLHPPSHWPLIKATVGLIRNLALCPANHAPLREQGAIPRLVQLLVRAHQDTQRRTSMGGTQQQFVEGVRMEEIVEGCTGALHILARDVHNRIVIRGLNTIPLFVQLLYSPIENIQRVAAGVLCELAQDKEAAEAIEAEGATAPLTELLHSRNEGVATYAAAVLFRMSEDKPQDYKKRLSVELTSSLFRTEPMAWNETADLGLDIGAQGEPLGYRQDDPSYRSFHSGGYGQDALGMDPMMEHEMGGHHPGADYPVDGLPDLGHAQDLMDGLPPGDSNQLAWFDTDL
The series is described as follows: Nano-BRET target engagement assay (B-cat-Halo & TCF4-Luc in HEK293 cells). Conditions: absolute IC50; read-out: NanoBRET Abs IC50. Format: cell-based.

In series [2] the test system is TCF/LEF luciferase Reporter in DLD1 cells. The series is described as follows: TCF reporter assay (DLD1 TCF/LEF luciferase reporter, Bright-Glo). It counts as cell-based. Conditions: for DLD1 TCF c2 BrightGlo % Inhibition: replicates. In outline: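 Readouts: Bright-Glo luciferase for reporter signal and CellTiter-Glo for cell viability, with absolute IC50 derived. The reporter clone came from lentiviral TCF/LEF-luciferase transduction of DLD1 cells, seeded 5000 cells/well in RPMI with 4% FBS and exposed overnight to serially diluted compounds.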
In general terms: In a reporter assay the amount or activity of a reporter protein is the signal.

The target of series [3] is T2, full-length beta-Catenin (Uniprot ID P35222) (Homo sapiens, UniProt P35222).
T2 construct: 10 nM full-length beta-Catenin (Uniprot ID P35222)
T2 sequence (P35222 1-781): T1 sequence (P35222 1-781)
In words: Fluorescence polarization IC50 (beta-catenin / 5FAM-TCF4 10-53 competition). Format: binding. Conditions: read-out: beta-Catenin FP IC50.

A short description of the next series: Solubility in PBS. Format: physicochemical. Conditions: Solubility (uM). Put shortly: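 Steps: ultracentrifuge the peptide PBS solution, inject the supernatant on HPLC, inject a 50 μM peptide DMSO solution as reference, then calculate solubility as area ratio (PBS/DMSO) × 50 uM.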
[4] abbreviates: absolute IC50, read-out: DLD1 reporter assay Abs IC50.
Where [5] appears, read: read-out: DLD1 4% Abs IC50, DLD1 4%.
[6] abbreviates: first dose = 20 uM (plate map), 20 µM.
Where [7] appears, read: third dose = 5 uM (plate map), 5 µM.

In the series “CHI Log D procedure”, `CC(=O)N1CCC[C@]12CC=CCCCC1(CCCC=CCCCOC(=O)N3CC[C@@](C(=O)N[C@@H](Cc4ccccc4Cl)C(=O)N[C@@H](Cc4csc5ccccc45)C(=O)N[C@@H](C(N)=O)[C@H](C)O)(C3)NC(=O)[C@H](CC(C)C)NC(=O)[C@H](Cc3ccccc3)NC(=O)[C@H](C)NC(=O)[C@H](C)NC(=O)[C@H](CC(=O)O)NC(=O)[C@H](CC(=O)O)NC1=O)NC(=O)[C@H](CC(C)(C)C)NC(=O)[C@H](CC(=O)O)NC2=O` (stereo partly drawn) [I-1035, Ac-PL3-Asp-Npg-B5-Asp-Asp-Ala-Ala-Phe-Leu-PyrS2-2C1F-BztA-dThr-NH2] displayed a chromatographic logD of 2.63. In addition, the IC50 in series [1] is 10.2 µM; in series [2] (setting [4]), above 20 µM; in series [3], 0.021 µM. Further, in “Solubility in PBS”, the concentration in solution (Solubility) came to 28 µM (≈ 53.7 µg/mL).
Take `CC(=O)N1CCC[C@]12CC=CCCCC1(CCCC=CCCCOC(=O)N3CC[C@@](C(=O)N[C@@H](Cc4ccccc4Cl)C(=O)N[C@@H](Cc4csc5ccccc45)C(=O)N[C@@H](CCC(N)=O)C(N)=O)(C3)NC(=O)[C@H](CO)NC(=O)[C@H](Cc3ccccc3)NC(=O)[C@H](C)NC(=O)[C@H](C)NC(=O)[C@H](CC(=O)O)NC(=O)[C@H](CC(=O)O)NC1=O)NC(=O)[C@H](CC1CCCCC1)NC(=O)[C@H](CC(=O)O)NC2=O` (stereo partly drawn) [I-1044, Ac-PL3-Asp-Cha-B5-Asp-Asp-Ala-Ala-Phe-Ser-PyrS2-2C1F-BztA-Gln-NH2]: in “CHI Log D procedure”, the chromatographic logD was 2.32. In addition, the IC50 in series [1] came out at 17.6 µM; in series [2] (setting [4]), 20 µM; in series [2] (setting [5]) it was 14.5 µM; in series [3], 0.005 µM. This compound also yielded a Solubility in the series “Solubility in PBS” of 43 µM (≈ 83.7 µg/mL).
Compound `CC(=O)N1CCC[C@]12CC=CCCCC1(CCCC=CCCCOC(=O)N3CC[C@@](C(=O)N[C@@H](Cc4ccccc4Cl)C(=O)N[C@@H](Cc4csc5ccccc45)C(=O)N[C@@H](CO)C(N)=O)(C3)NC(=O)[C@H]([C@@H](C)O)NC(=O)[C@H](Cc3ccccc3)NC(=O)[C@H](C)NC(=O)[C@H](C)NC(=O)[C@H](CC(=O)O)NC(=O)[C@H](CC(=O)O)NC1=O)NC(=O)[C@H](CC1CCCCC1)NC(=O)[C@H](CC(=O)O)NC2=O` (stereo partly drawn) [I-1048, Ac-PL3-Asp-Cha-B5-Asp-Asp-Ala-Ala-Phe-Thr-PyrS2-2C1F-BztA-Ser-NH2] returned a chromatographic logD in the series “CHI Log D procedure” of 2.52. The IC50 in series [1] was 8.8 µM; in series [2] (setting [4]) it was 10.5 µM; in series [3], 0.005 µM. Also, the Solubility in the series “Solubility in PBS” stood at 42 µM (≈ 80.6 µg/mL).
For the compound `CC(=O)N1CCC[C@]12CC=CCCCC1(CCCC=CCCCOC(=O)N3CC[C@@](C(=O)N[C@@H](Cc4ccccc4Cl)C(=O)N[C@@H](Cc4csc5ccccc45)C(=O)N[C@@H](CO)C(N)=O)(C3)NC(=O)[C@H](CO)NC(=O)[C@H](Cc3ccccc3)NC(=O)[C@H](C)NC(=O)[C@H](C)NC(=O)[C@H](CC(=O)O)NC(=O)[C@H](CC(=O)O)NC1=O)NC(=O)[C@H](CC1CCCCC1)NC(=O)[C@H](CC(=O)O)NC2=O` (stereo partly drawn) [I-1050, Ac-PL3-Asp-Cha-B5-Asp-Asp-Ala-Ala-Phe-Ser-PyrS2-2C1F-BztA-Ser-NH2], the chromatographic logD in the series “CHI Log D procedure” was 2.45. In addition, the IC50 in series [1] came to 24.8 µM; in series [2] (setting [4]) it was 11.2 µM; in series [3], 0.005 µM. Further, the “DLD1 TCF c2 BrightGlo % Inhibition” value in series [2] (setting [6]) was 61.5% and 59.8% and 58.7%; in series [2] (0.625 µM) it was 13.7% and 5.5% and 6.1%; in series [2] (1.25 µM), 6.8% and −0.9% and −4.5%; in series [2] (2.5 µM), 6.2% and 1.9% and −2.2%; in series [2] (10 µM), 50.8% and 46.4% and 39.4%; in series [2] (setting [7]), 25.4% and 24.7% and 12.9%. In the series “Solubility in PBS”, this compound gave a Solubility of 43 µM (≈ 81.9 µg/mL).
For the compound `CC(=O)N1CCC[C@]12CC=CCCCC1(CCCC=CCCCOC(=O)N3CC[C@@](C(=O)N[C@@H](Cc4ccccc4Cl)C(=O)N[C@@H](Cc4csc5ccccc45)C(=O)N[C@@H](CO)C(N)=O)(C3)NC(=O)[C@H](CO)NC(=O)[C@H](Cc3ccccc3)NC(=O)[C@H](C)NC(=O)[C@H](C)NC(=O)[C@H](CC(=O)O)NC(=O)[C@H](CC(=O)O)NC1=O)NC(=O)[C@H](Cc1ccccc1)NC(=O)[C@H](CC(=O)O)NC2=O` (stereo partly drawn) [I-1051, Ac-PL3-Asp-Phe-B5-Asp-Asp-Ala-Ala-Phe-Ser-PyrS2-2C1F-BztA-Ser-NH2], in “CHI Log D procedure”, the chromatographic logD was determined as 2.23. Also, the IC50 is above 20 µM in series [1], above 20 µM in series [2] (setting [4]) and 0.014 µM in series [3]. Moreover, the “DLD1 TCF c2 BrightGlo % Inhibition” value in series [2] (setting [6]) is 20.2% and 21.7% and 24.7%; in series [2] (0.625 µM), −1.7% and −3.4% and 0.0%; in series [2] (1.25 µM), −12.2% and −5.2% and −3.8%; in series [2] (2.5 µM), −12.5% and −11.1% and −13.2%; in series [2] (10 µM), 3.9% and 5.0% and −0.5%; in series [2] (setting [7]) it was −4.1% and −5.0% and −11.4%. Also, the Solubility in the series “Solubility in PBS” was 48 µM (≈ 91.1 µg/mL).
In “CHI Log D procedure”, `CCNC(=O)[C@H](CCC(N)=O)NC(=O)[C@H](Cc1csc2ccccc12)NC(=O)[C@H](Cc1ccccc1Cl)NC(=O)[C@]12CCN(C1)C(=O)OCCCC=CCCCC1(CCCC=CC[C@]3(CCCN3C(C)=O)C(=O)N[C@@H](CC(=O)O)C(=O)N[C@@H](CC(C)(C)C)C(=O)N1)C(=O)N[C@@H](CC(=O)O)C(=O)N[C@@H](CC(=O)O)C(=O)N[C@@H](C)C(=O)N[C@@H](C)C(=O)N[C@@H](Cc1ccccc1)C(=O)N[C@@H](CC(N)=O)C(=O)N2` (stereo partly drawn) [I-1079, Ac-PL3-Asp-Npg-B5-Asp-Asp-Ala-Ala-Phe-Asn-PyrS2-2C1F-BztA-Gln-NHEt] yielded a chromatographic logD of 2.5. The IC50 in series [1] amounted to 19.7 µM; in series [2] (setting [4]), 14.5 µM; in series [3], 0.005 µM. Further, the “DLD1 TCF c2 BrightGlo % Inhibition” value in series [2] (setting [6]) was 55.6% and 58.1% and 54.7%; in series [2] (0.625 µM), 1.4% and 6.9% and 6.8%; in series [2] (1.25 µM), 1.4% and −0.6% and 2.6%; in series [2] (2.5 µM), −25.7% and −0.8% and 5.1%; in series [2] (10 µM), 34.2% and 39.4% and 42.0%; in series [2] (setting [7]) it was 7.4% and 16.0% and 26.5%. For the same compound, the concentration in solution in the series “Solubility in PBS” (Solubility) came to 45 µM (≈ 88.9 µg/mL).
As for `CC(=O)N1CCC[C@]12CC=CCCCC1(CCCC=CCCCOC(=O)N3CC[C@@](C(=O)N[C@@H](Cc4ccccc4Cl)C(=O)N[C@@H](Cc4csc5ccccc45)C(=O)N[C@H](CO)CC(C)C)(C3)NC(=O)[C@H](CC(N)=O)NC(=O)[C@H](Cc3ccccc3)NC(=O)[C@H](C)NC(=O)[C@H](C)NC(=O)[C@H](CC(=O)O)NC(=O)[C@H](CC(=O)O)NC1=O)NC(=O)[C@H](CC(C)(C)C)NC(=O)[C@H](CC(=O)O)NC2=O` (stereo partly drawn) [I-1080, Ac-PL3-Asp-Npg-B5-Asp-Asp-Ala-Ala-Phe-Asn-PyrS2-2C1F-BztA-Leuo1], the chromatographic logD in “CHI Log D procedure” was 2.59. The IC50 in series [1] is above 20 µM; in series [2] (setting [4]) it was 17.2 µM; in series [2] (setting [5]) it was 10.4 µM; in series [3], 0.006 µM. For the same compound, the “DLD1 TCF c2 BrightGlo % Inhibition” value in series [2] (setting [6]) was 51.4% and 56.9% and 51.8%; in series [2] (0.625 µM), 20.2% and 13.7% and 15.3%; in series [2] (1.25 µM), 16.0% and 13.8% and 12.3%; in series [2] (2.5 µM), 14.6% and 19.8% and 7.9%; in series [2] (10 µM), 42.4% and 42.2% and 38.1%; in series [2] (setting [7]), 24.9% and 31.0% and 24.4%. The Solubility in “Solubility in PBS” is 47 µM (≈ 90.2 µg/mL).

As a reminder, the chromatographic logD is a lipophilicity value derived from retention on a column. Low values mean a more hydrophilic compound, high ones a more lipophilic compound. By IC50 is commonly meant the concentration that gives 50% inhibition. One may read the Solubility as how much of the substance goes into solution per volume. The low end stands for little dissolved substance, the high end for much dissolved substance.
